From ChEMBL document CHEMBL1156860, “Synthesis and biological activities of novel indole derivatives as potent and selective PPARgamma modulators” (Bioorg Med Chem Lett, 2010) come the findings set out here.

Series [1] has as its target T1, Peroxisome proliferator-activated receptor alpha (Homo sapiens, UniProt Q07869).
T1 sequence (Q07869 whole entry): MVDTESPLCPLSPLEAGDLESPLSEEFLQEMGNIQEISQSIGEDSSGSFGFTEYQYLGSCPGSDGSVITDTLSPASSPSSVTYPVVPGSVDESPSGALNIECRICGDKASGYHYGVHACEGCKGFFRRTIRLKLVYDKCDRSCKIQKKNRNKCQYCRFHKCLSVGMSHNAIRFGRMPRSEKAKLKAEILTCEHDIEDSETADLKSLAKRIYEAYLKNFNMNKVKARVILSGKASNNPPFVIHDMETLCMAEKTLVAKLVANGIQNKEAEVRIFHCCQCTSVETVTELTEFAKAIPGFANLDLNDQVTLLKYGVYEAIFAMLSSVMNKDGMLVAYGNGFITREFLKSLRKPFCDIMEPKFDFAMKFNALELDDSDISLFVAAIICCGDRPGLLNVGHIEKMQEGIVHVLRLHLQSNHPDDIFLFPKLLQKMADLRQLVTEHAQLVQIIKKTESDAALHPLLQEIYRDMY
In words: Displacement of radiolabeled GW-2433 from human PPARalpha ligand binding domain expressed in Escherichia coli.

Series [2] addresses T2, Peroxisome proliferator-activated receptor gamma (Homo sapiens, UniProt P37231).
T2 sequence (P37231 whole entry): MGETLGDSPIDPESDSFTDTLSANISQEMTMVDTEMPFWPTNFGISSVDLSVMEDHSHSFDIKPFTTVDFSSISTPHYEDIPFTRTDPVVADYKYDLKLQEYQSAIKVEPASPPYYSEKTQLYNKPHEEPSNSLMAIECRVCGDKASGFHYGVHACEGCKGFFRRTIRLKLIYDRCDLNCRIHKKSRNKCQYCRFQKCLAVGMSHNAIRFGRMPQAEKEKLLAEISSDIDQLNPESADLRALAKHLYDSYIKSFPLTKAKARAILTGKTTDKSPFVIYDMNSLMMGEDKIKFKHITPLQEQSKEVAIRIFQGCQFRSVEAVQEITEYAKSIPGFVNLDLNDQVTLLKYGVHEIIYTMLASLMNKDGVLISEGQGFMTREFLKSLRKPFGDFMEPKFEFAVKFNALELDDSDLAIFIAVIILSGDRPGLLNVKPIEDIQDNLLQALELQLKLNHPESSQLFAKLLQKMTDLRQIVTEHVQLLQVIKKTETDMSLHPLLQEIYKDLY
Description: Agonist activity at human PPARgamma expressed in african green monkey CV1 cells by Gal4 transactivation assay

The target in series [3] is T3, Peroxisome proliferator-activated receptor delta (Homo sapiens, UniProt Q03181).
T3 sequence (Q03181 whole entry): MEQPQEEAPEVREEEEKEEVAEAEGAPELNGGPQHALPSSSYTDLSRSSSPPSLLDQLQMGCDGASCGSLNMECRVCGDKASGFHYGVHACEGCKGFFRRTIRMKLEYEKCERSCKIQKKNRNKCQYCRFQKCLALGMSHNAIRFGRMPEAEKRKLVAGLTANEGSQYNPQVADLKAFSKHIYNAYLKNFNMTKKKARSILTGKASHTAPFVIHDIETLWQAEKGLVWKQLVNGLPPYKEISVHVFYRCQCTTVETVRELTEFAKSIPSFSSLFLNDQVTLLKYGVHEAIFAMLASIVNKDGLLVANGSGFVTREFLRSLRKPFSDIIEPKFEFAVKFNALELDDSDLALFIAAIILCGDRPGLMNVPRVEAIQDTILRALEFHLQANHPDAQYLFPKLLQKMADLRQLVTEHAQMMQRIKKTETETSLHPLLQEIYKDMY
In words: Displacement of radiolabeled GW-2433 from human PPARdelta ligand binding domain expressed in Escherichia coli.

Series [4] concerns the target T1, Peroxisome proliferator-activated receptor alpha. In words: Agonist activity at human PPARalpha expressed in african green monkey CV1 cells by Gal4 transactivation assay. Format: functional, cell-based, CV-1.
Series [5] deals with T3, Peroxisome proliferator-activated receptor delta. The experiment in a line: Agonist activity at human PPARdelta expressed in african green monkey CV1 cells by Gal4 transactivation assay. Format: functional, cell-based, CV-1.
For series [6], the target named is T2, Peroxisome proliferator-activated receptor gamma. The source holds these as a separate data set.
Description: Displacement of radiolabeled ((5-{4-[Methyl-pyridin-2yl-amino)-ethoxy]-benzyl}-thiazolidine-2,4-dione) from human PPARgamma ligand binding domain expressed in Escherichia coli
Series [7] has as its target T4, Peroxisome proliferator-activated receptor delta (Mus musculus, UniProt P35396).
T4 sequence (P35396 whole entry): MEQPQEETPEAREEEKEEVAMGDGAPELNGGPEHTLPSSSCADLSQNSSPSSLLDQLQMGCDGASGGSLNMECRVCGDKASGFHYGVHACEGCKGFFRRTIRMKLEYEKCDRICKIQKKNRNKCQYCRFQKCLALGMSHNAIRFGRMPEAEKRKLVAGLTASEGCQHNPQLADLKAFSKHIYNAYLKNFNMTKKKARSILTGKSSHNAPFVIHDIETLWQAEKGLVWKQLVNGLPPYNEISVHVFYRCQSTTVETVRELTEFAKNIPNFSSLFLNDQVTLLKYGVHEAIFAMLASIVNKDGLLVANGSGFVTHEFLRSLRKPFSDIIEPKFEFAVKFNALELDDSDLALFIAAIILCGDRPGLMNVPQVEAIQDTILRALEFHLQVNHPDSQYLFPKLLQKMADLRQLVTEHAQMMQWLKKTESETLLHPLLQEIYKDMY
The experiment in a line: Agonist activity at mouse PPARdelta expressed in african green monkey CV1 cells by Gal4 transactivation assay. Format: functional, cell-based, CV-1.

In series [8] the target is T5, Peroxisome proliferator-activated receptor gamma (Mus musculus, UniProt P37238).
T5 sequence (P37238 whole entry): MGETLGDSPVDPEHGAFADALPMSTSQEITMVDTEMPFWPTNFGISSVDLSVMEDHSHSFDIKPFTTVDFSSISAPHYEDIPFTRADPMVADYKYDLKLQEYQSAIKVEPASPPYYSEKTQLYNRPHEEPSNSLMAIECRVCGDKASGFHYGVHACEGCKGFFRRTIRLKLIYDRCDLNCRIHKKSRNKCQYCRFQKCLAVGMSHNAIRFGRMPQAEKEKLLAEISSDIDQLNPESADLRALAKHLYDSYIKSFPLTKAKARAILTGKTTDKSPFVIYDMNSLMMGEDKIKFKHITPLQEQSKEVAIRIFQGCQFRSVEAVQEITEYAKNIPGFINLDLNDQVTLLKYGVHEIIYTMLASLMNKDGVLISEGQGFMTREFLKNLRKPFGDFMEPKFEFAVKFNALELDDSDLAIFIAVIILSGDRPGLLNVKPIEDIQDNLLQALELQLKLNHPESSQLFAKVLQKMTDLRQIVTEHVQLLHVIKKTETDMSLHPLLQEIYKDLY
In words: Agonist activity at mouse PPARgamma expressed in african green monkey CV1 cells by Gal4 transactivation assay. Format: functional, cell-based, CV-1.

In series [9] the target is T6, Peroxisome proliferator-activated receptor alpha (Mus musculus, UniProt P23204).
T6 sequence (P23204 whole entry): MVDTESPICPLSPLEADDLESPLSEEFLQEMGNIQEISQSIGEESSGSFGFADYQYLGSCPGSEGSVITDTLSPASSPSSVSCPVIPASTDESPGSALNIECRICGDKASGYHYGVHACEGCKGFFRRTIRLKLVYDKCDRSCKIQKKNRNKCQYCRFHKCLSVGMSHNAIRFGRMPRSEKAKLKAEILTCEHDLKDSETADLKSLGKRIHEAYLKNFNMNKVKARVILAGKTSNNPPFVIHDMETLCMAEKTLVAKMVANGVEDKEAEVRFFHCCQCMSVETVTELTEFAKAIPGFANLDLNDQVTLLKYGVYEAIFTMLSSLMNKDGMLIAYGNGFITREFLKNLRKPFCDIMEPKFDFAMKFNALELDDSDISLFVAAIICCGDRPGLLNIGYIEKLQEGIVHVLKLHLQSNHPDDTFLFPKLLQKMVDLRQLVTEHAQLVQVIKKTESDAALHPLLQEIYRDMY
The experiment in a line: Agonist activity at mouse PPARalpha expressed in african green monkey CV1 cells by Gal4 transactivation assay. The series is classed as functional, cell-based, CV-1.

The target of series [10] is T7, Peroxisome proliferator-activated receptor alpha (Homo sapiens) (UniProt Q07869).
T7 sequence (whole entry): T1 sequence (Q07869 whole entry)
The experiment in a line: Agonist activity at human PPARalpha expressed in african green monkey CV1 cells by Gal4 transactivation assay relative to SW516. The note with it: CV-1. The series is classed as functional, cell-based.

The test system of series [11] is Rattus norvegicus. In words: Antidiabetic activity in Zucker fa/fa rat assessed as reduction in hematocrit level in at 10 mg/kg, po twice a day for 5 days. The series is classed as functional. Details: scale not given: the % may be the effect or the level left.
Series [12] can be described thus: AUC in Zucker fa/fa rat at 5 mg/kg, po. Format: ADME, organism-based. Further details: dose 5 mg/kg, route oral. Conditions: plasma.
The subject of series [13] is Rattus norvegicus. In words: Antidiabetic activity in Zucker fa/fa rat assessed as reduction in plasma glucose level in at 10 mg/kg, po twice a day for 5 days. Format: functional. Details: scale not given: the % may be the effect or the level left.
The subject of series [14] is Rattus norvegicus. In words: Antidiabetic activity in Zucker fa/fa rat assessed as reduction in triglyceride level in at 10 mg/kg, po twice a day for 5 days. The series is classed as functional. Further details: scale not given: the % may be the effect or the level left.

`CCCc1c(SC)c2cc(NC(=O)C(CC)c3ccccc3)ccc2n1Cc1ccc(-c2ccccc2C(=O)O)cc1` (stereo not given): the IC50 (as a rule, the point on the concentration scale where inhibition reaches its midpoint) in [1] is above 10 µM; in [3] it was above 10 µM; in series [6] it was 0.036 µM. The results for the EC50 in series [2], in [4] and in series [5] were 0.003 µM, above 10 µM and above 10 µM, respectively.

As to `CCCc1nc2ccc(C(=O)NC(CC)c3ccccc3)cc2n1Cc1ccc(-c2ccccc2C(=O)O)cc1` (stereo not given), the EC50 (commonly the concentration at which the effect is half-maximal) is 0.9 µM in series [2]; above 10 µM in [7]; 1.69 µM in series [8]; above 10 µM in series [4]; above 10 µM in series [5]; above 10 µM in [9].

For `CCC(C(=O)Nc1ccc2c(c1)c(C)c(C)n2Cc1ccc(-c2ccccc2C(=O)O)cc1)c1ccccc1` (stereo not given), the concentration for half-maximal inhibition (IC50) in series [1] is above 10 µM; in series [3], above 10 µM; in [6], 0.574 µM. Also, the EC50 came out at 0.338 µM in series [2] and 6.14 µM in series [4]. This compound also yielded an Activity in series [10] of 45%.

Consider `CCCc1nc2c(C)cc(-c3nc4ccccc4n3C)cc2n1Cc1ccc(-c2ccccc2C(=O)O)cc1`, for which the IC50 was above 10 µM in [1], above 10 µM in series [3] and 12.2 µM in [6]. Further, the EC50 in [2] is 2.02 µM; in series [7] it was above 10 µM; in [8], 4.06 µM; in [4], above 10 µM; in [5], above 10 µM; in series [9], above 10 µM.

Take `Cc1c(C)n(Cc2ccc(-c3ccccc3C(=O)O)cc2)c2ccc(C(=O)NCCCc3ccccc3)cc12`: the figures for the IC50 in series [1], in series [3] and in series [6] were above 10 µM, above 10 µM and 0.018 µM, respectively. For the same compound, the EC50 is 0.022 µM in series [2], above 10 µM in [4] and above 10 µM in series [5].

On to `CCCc1cc2cc(NC(=O)C(CC)c3ccccc3)ccc2n1Cc1ccc(-c2ccccc2C(=O)O)cc1` (stereo not given), for which the IC50 in series [1] was above 10 µM; in series [3] it was above 10 µM; in [6] it was 0.26 µM. The EC50 was 0.002 µM in series [2] and above 10 µM in series [4].

As to `CN(CCOc1ccc(C[C@H](Nc2ccccc2C(=O)c2ccccc2)C(=O)O)cc1)c1ccccn1`, the results for the Activity in series [11], in series [13] and in [14] were 15%, 21% and 54%, respectively. Also, the AUC – broadly, concentration integrated over time – in series [12] stood at 16500 ng·h/mL.

Consider `CCC(NC(=O)c1ccc2c(c1)c(SC)c(C)n2Cc1ccc(-c2ccccc2C(=O)O)cc1)c1ccccc1` (stereo not given), for which the IC50 was above 10 µM in [1], above 10 µM in series [3] and 0.012 µM in [6]. In addition, the EC50 in [2] is 0.001 µM; in [4], above 10 µM; in series [5], above 10 µM.

In the case of `CCC(NC(=O)c1ccc2cc(C)n(Cc3ccc(-c4ccccc4C(=O)O)cc3)c2c1)c1ccccc1` (stereo not given), the IC50 in [1] is above 10 µM; in [3], above 10 µM; in [6], 0.321 µM. In addition, the EC50 in series [2] was 0.163 µM; in [4], above 10 µM; in series [5] it was above 10 µM.

For the compound `CCC(NC(=O)c1ccc2c(c1)cc(C)n2Cc1ccc(-c2ccccc2C(=O)O)cc1)c1ccccc1` (stereo not given), the figures for the IC50 in series [1], in series [3] and in series [6] were 7.04 µM, above 10 µM and 0.018 µM, respectively. Further, the EC50 in series [2] is 0.017 µM; in [4], 4.96 µM; in series [5], above 10 µM. Moreover, the Activity in series [10] stood at 114%.

In the case of `Cc1c(C)n(Cc2ccc(-c3ccccc3C(=O)O)cc2)c2ccc(C(=O)NCc3ccccc3)cc12`, the concentration for half-maximal inhibition (IC50) in series [1] and in series [3] was above 10 µM throughout. Moreover, the EC50 in [4] and in series [5] was above 10 µM each time.

On to `CCCc1c(SC)c2ccc(NC(=O)C(CC)c3ccccc3)cc2n1Cc1ccc(-c2ccccc2C(=O)O)cc1` (stereo not given), for which the IC50 was above 10 µM in [1], 6.95 µM in series [3] and 0.49 µM in [6]. Also, the EC50 is 0.201 µM in series [2] and above 10 µM in [4].
